From US11584710B2, “Compounds for treating infections” (HORITZONTS TECNOLOGICS HUNGARY KORLÁTOLT FELELOSSÉGU …, priority 2017, dated 2023)

Columns and labels:
Format in all cases: cell-based
A. flavus = assay: Antifungal disk diffusion susceptibility test (CLSI M44); details: Aspergillus flavus, A. flavus; for zone of inhibition at 150 µg/disc: 150 μg/disc; for zone of inhibition at 500 µg/disc: 500 μg/disc
Procedure: (§1) Filamentous fungi and yeasts strains, from clinical origin, were supplied by Microbiology Service from The Princess Hospital, Madrid. They are detailed in Table IX.
(§2) Filamentous fungi and yeast cells suspensions in distilled water was prepared from a culture of 24-48 h, depending on species, in Sabouraud agar. Each suspension was adjusted to a fixed size inoculum of 1-5×10^8 CFU/ml with a spectrophotometer (Ferraro, MJ National Committee for Clinical Laboratory Standards. 2000).
(§3) Antifungal susceptibility tests were developed following the standardized methodology detailed in document CLSI: M44-4: Method for Antifungal Disk diffusion susceptibility testing of yeasts consisting of disk diffusion on agar Muller-Hinton (supplemented with 2% glucose).

A. fumigatus = assay: as above; details: Aspergillus fumigatus, A. fumigatus; for zone of inhibition at 150 µg/disc: 150 μg/disc; for zone of inhibition at 500 µg/disc: 500 μg/disc
Procedure: as §1, §2, §3

A. niger = assay: as above; details: Aspergillus niger, A. niger; for zone of inhibition at 150 µg/disc: 150 μg/disc; for zone of inhibition at 500 µg/disc: 500 μg/disc
Procedure: as §1, §2, §3

A. terreus = assay: as above; details: Aspergillus terreus, A. terreus; for zone of inhibition at 150 µg/disc: 150 μg/disc; for zone of inhibition at 500 µg/disc: 500 μg/disc
Procedure: as §1, §2, §3

C. albicans = assay: as above; details: Candida albicans, C. albicans; for zone of inhibition at 150 µg/disc: 150 μg/disc; for zone of inhibition at 500 µg/disc: 500 μg/disc
Procedure: as §1, §2, §3

C. guillermondii = assay: as above; details: C. guillermondii; for zone of inhibition at 150 µg/disc: 150 μg/disc; for zone of inhibition at 500 µg/disc: 500 μg/disc
Procedure: as §1, §2, §3

C. lusitaniae = assay: as above; details: Clavispora lusitaniae, C. lusitaniae; for zone of inhibition at 150 µg/disc: 150 μg/disc; for zone of inhibition at 500 µg/disc: 500 μg/disc
Procedure: as §1, §2, §3

C. parapsilosis = assay: as above; details: Lodderomyces parapsilosis, C. parapsilosis; for zone of inhibition at 150 µg/disc: 150 μg/disc; for zone of inhibition at 500 µg/disc: 500 μg/disc
Procedure: as §1, §2, §3

C. tropicalis = assay: as above; details: Candida tropicalis, C. tropicalis; for zone of inhibition at 150 µg/disc: 150 μg/disc; for zone of inhibition at 500 µg/disc: 500 μg/disc
Procedure: as §1, §2, §3

S. cerevisiae = assay: as above; details: Saccharomyces cerevisiae, S. cerevisiae; for zone of inhibition at 150 µg/disc: 150 μg/disc; for zone of inhibition at 500 µg/disc: 500 μg/disc
Procedure: as §1, §2, §3

A. baumannii = assay: Kirby-Bauer disk diffusion susceptibility test; details: 300 μg/disc
Procedure: (§4) Bacterial strains, from clinical origin, were supplied by the National Center for Microbiology, Institute of Health Carlos III (Majadahonda, Madrid). They are detailed in Table 1.
(§5) Bacterial cells suspension in sterile saline was prepared from a culture of 24-72 h, depending on bacterial species, in Mueller-Hinton Agar with 5% sheep blood. Each suspension was adjusted to a fixed size inoculum of 1-5×10^8 CFU/ml with a spectrophotometer (Ferraro, MJ National Committee for Clinical Laboratory Standards. 2000).
(§6) Kirby-Bauer disk diffusion susceptibility test protocol was utilized to determine the sensitivity or resistance of pathogenic bacteria against the compounds and others antibiotics. The absence of growth around the disks is an indirect measure of the ability of this compound to inhibit an organism (Kirby, W., et al., Antibiotics Annu. 1956-1957:892). After 18 to 72 hours of incubation at 37° C., with or without CO2, under aerobic or anaerobic conditions, depending on the bacterial species, halo of growth inhibition were obtained and evaluated.
(§7) Interpretation of susceptibility and resistance was based on the presence or absence of a zone of inhibition surrounding the disk. Kirby-Bauer disk diffusion susceptibility test is a common method which uses antibiotic-impregnated wafers to test whether bacteria are affected by antibiotics. The size of the zone of inhibition depends on how effective the antibiotic is at stopping the growth of the bacterium. A stronger antibiotic will create a larger zone, because a lower concentration of the antibiotic is enough to stop growth.
(§8) All compounds were tested at 300 μg/disc.

T. pulmonis = assay: Kirby-Bauer disk diffusion susceptibility test; details: 300 μg/disc
Procedure: as §4, §5, §6, §7, §8

N. carnea = assay: Kirby-Bauer disk diffusion susceptibility test; details: 300 μg/disc
Procedure: as §4, §5, §6, §7, §8

N. cyriacigeorgica = assay: Kirby-Bauer disk diffusion susceptibility test; details: 300 μg/disc
Procedure: as §4, §5, §6, §7, §8

S. pneumoniae = assay: Kirby-Bauer disk diffusion susceptibility test; details: 300 μg/disc
Procedure: as §4, §5, §6, §7, §8

| SMILES | zone of inhibition at 150 µg/disc (A. flavus) | zone of inhibition at 500 µg/disc (A. flavus) | zone of inhibition at 150 µg/disc (A. fumigatus) | zone of inhibition at 500 µg/disc (A. fumigatus) | zone of inhibition at 150 µg/disc (A. niger) | zone of inhibition at 500 µg/disc (A. niger) | zone of inhibition at 150 µg/disc (A. terreus) | zone of inhibition at 500 µg/disc (A. terreus) | zone of inhibition at 150 µg/disc (C. albicans) | zone of inhibition at 500 µg/disc (C. albicans) | zone of inhibition at 150 µg/disc (C. guillermondii) | zone of inhibition at 500 µg/disc (C. guillermondii) | zone of inhibition at 150 µg/disc (C. lusitaniae) | zone of inhibition at 500 µg/disc (C. lusitaniae) | zone of inhibition at 150 µg/disc (C. parapsilosis) | zone of inhibition at 500 µg/disc (C. parapsilosis) | zone of inhibition at 150 µg/disc (C. tropicalis) | zone of inhibition at 500 µg/disc (C. tropicalis) | zone of inhibition at 150 µg/disc (S. cerevisiae) | zone of inhibition at 500 µg/disc (S. cerevisiae) | also measured |
| --- | --- | --- | --- | --- | --- | --- | --- | --- | --- | --- | --- | --- | --- | --- | --- | --- | --- | --- | --- | --- | --- |
| NNC(=O)C(=O)NNc1ccc(F)cc1 [MSG-193] | 15 mm | > 40 mm | 20 mm | > 40 mm | 15 mm | > 40 mm | 12 mm | 32 mm | 20 mm | > 40 mm | 20 mm | 40 mm | 15 mm | > 40 mm | 18 mm | > 40 mm | 30 mm | > 40 mm | 22 mm | 40 mm |  |
| COc1cccc(NNC(=O)C(=O)NN)c1 [MSG-227] | 25 mm | > 40 mm | 11 mm | > 40 mm | 32 mm | > 40 mm | > 40 mm | > 40 mm | 26 mm | > 40 mm | > 40 mm | > 40 mm | > 40 mm | > 40 mm | 31 mm | > 40 mm | 26 mm | > 40 mm | 20 mm | 25 mm |  |
| Cc1ccc(NNC(=O)C(=O)NN)cc1 [MSG-218] | < 10 mm | < 10 mm | < 10 mm | 10 mm | 22 mm | 30 mm | < 10 mm | 10 mm | 24 mm | > 40 mm | 22 mm | 40 mm | 22 mm | 46 mm | 25 mm | 36 mm | 10 mm | 40 mm | 24 mm | 34 mm | Activity detected (mm) (A. baumannii): 15 mm; Activity detected (mm) (T. pulmonis): 33 mm |
| NNC(=O)C(=O)NNc1ccc(Cl)cc1 [MSG-214] | < 10 mm | < 10 mm | < 10 mm | 16 mm | 10 mm | > 40 mm | < 10 mm | 17 mm | 40 mm | > 40 mm | 15 mm | > 40 mm | 42 mm | > 40 mm | 15 mm | > 40 mm | 34 mm | > 40 mm | 15 mm | 32 mm | Activity detected (mm) (A. baumannii): 12 mm; Activity detected (mm) (N. carnea): 14 mm; Activity detected (mm) (N. cyriacigeorgica): 25 mm; Activity detected (mm) (S. pneumoniae): 11 mm; Activity detected (mm) (T. pulmonis): 30 mm |
